Measured values: US20230416330A1, “Optimized GIP Peptide Analogues” (Antag Therapeutics ApS, priority 2019, published 2023)
Starred links: 1 amine or outer side, 2 acyl side, 3 side chain; linkers in the order of their positions; H or OH if unused. Non-standard residues stand in square brackets, D forms with d. Residues, ends and D or L forms follow the SMILES beside them. Groups on a side chain read outwards from the residue. *: point of attachment. C18 diacid = O=C(O)CCCCCCCCCCCCCCCCC(=O)*; C16 diacid = O=C(O)CCCCCCCCCCCCCCC(=O)*; γGlu = O=C(O)[C@H](CCC(=O)[*:2])N[*:1]; Nle = CCCC[C@H](N)C(=O)O; AEEA = NCCOCCOCC(=O)O; Aib = CC(C)(N)C(=O)O

How the values were obtained:
[1] = Solubility by visual inspection of peptide solutions; type: physicochemical
Summary of the method: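 Solubility scored by eye: clear, colorless appearance after gentle mixing. Samples prepared at 1, 5, 7.5 or 15 mg/ml in either pH 7.4 water (NaOH-adjusted) or 50 mM sodium phosphate buffer, pH 7.4.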

[2] = molecular target: T1, human GIP receptor (Homo sapiens, UniProt P48546); test: cAMP assay Alternative 1 (CisBio assay), GIPR antagonism; type: cell-based; details: for cAMP antagonism % inhib: Table 2B, % inhibition of Emax
T1 construct: host or cells: HEK-293 cells, transient transfection (Lipofectamine 2000), cDNA in pCMV-Script vector
T1 sequence (P48546 22-466): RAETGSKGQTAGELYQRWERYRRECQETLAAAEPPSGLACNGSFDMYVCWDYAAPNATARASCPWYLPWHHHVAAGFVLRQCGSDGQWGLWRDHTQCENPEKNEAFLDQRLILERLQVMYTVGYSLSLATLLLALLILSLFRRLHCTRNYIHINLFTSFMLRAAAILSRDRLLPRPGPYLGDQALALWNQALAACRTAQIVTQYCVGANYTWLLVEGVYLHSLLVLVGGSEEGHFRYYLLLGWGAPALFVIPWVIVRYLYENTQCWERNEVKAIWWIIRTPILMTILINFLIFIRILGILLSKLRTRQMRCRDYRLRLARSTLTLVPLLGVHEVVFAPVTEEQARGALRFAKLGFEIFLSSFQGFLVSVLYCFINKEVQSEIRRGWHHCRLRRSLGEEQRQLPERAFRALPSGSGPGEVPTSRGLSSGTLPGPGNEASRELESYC
Summary of the method: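 HEK293 cells transiently transfected with hGIPR, compounds diluted in HBSS/HEPES/pluronic/casein with 500 uM IBMX; decrease in intracellular cAMP read by HTRF (665/620 nm) and converted via cAMP standard curve. pIC50 from four-parameter fit; agonism tested separately after 30 min at 37° C.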

[3] = Physical stability: fibril formation in Thioflavin T (ThT) assay with agitation; type: physicochemical; details: 25° C., agitation
Summary of the method: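 Read-out is continuous ThT fluorescence at 486 nm, with lag time taken where signal reaches 10% between pre- and post-transition baselines. Filtered samples (1, 5, 7.5 or 15 mg/ml; pH 7.4 phosphate buffer or NaOH-adjusted water) were stressed at 25° C. by orbital rotation at 300 rpm with one silica bead per well.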

CC[C@H](C)[C@H](NC(=O)[C@H](CO)NC(=O)[C@H](Cc1ccc(O)cc1)NC(=O)[C@H](CC(=O)O)NC(=O)[C@H](CO)NC(=O)[C@@H](NC(=O)[C@H](Cc1ccccc1)NC(=O)[C@@H](NC(=O)CNC(=O)[C@@H](N)CCC(=O)O)[C@@H](C)O)[C@@H](C)CC)C(=O)N[C@@H](C)C(=O)N[C@@H](CCSC)C(=O)N[C@@H](CC(=O)O)C(=O)N[C@@H](CCCCN)C(=O)N[C@H](C(=O)N[C@@H](CCCCNC(=O)CCCCCCCCCCCCCCC(=O)O)C(=O)N[C@@H](CCC(N)=O)C(=O)N[C@@H](CCC(N)=O)C(=O)N[C@@H](CC(=O)O)C(=O)N[C@@H](Cc1ccccc1)C(=O)N[C@H](C(=O)N[C@@H](CC(N)=O)C(=O)N[C@@H](Cc1c[nH]c2ccccc12)C(=O)N[C@@H](CC(C)C)C(=O)N[C@@H](CC(C)C)C(=O)N[C@@H](C)C(=O)N[C@@H](CCC(N)=O)C(=O)N[C@@H](CCCCN)C(N)=O)C(C)C)[C@@H](C)CC [AT158, reference compound] (H-EGTFISDYSIAMDKIK(C16 diacid)QQDFVNWLLAQK-NH2; N-terminus assumed)
Visual appearance ([1]; 1 mg/ml, CI, MilliQ (7.9)): Turbid and Hazy | cAMP antagonism pIC50 ([2]; Table 2A, HEK-293 cells transiently expressing hGIPR, agonist GIP1-42 at EC50): 7.8 | Avr lag time ([3]; 1 mg/ml, TFA, Phosphate (7.4)): <18 h | Avr lag time ([3]; 5 mg/ml, TFA, MilliQ): <18 h

CC[C@H](C)[C@H](NC(=O)[C@H](CO)NC(=O)[C@H](Cc1ccc(O)cc1)NC(=O)[C@H](CC(=O)O)NC(=O)[C@H](CO)NC(=O)[C@@H](NC(=O)[C@H](Cc1ccccc1)NC(=O)[C@@H](NC(=O)CNC(=O)[C@@H](N)CCC(=O)O)[C@@H](C)O)[C@@H](C)CC)C(=O)N[C@@H](C)C(=O)N[C@@H](CC(C)C)C(=O)N[C@@H](CC(=O)O)C(=O)N[C@@H](CCCCN)C(=O)N[C@H](C(=O)N[C@@H](CCCCNC(=O)CCCCCCCCCCCCCCC(=O)O)C(=O)N[C@@H](CCC(N)=O)C(=O)N[C@@H](CCC(N)=O)C(=O)N[C@@H](CC(=O)O)C(=O)N[C@@H](Cc1ccccc1)C(=O)N[C@H](C(=O)N[C@@H](CCC(=O)O)C(=O)N[C@@H](Cc1c[nH]c2ccccc12)C(=O)N[C@@H](CC(C)C)C(=O)N[C@@H](CC(C)C)C(=O)N[C@@H](C)C(=O)N[C@@H](CCC(N)=O)C(=O)N[C@@H](CCCCN)C(=O)N1CCC[C@H]1C(=O)N[C@@H](CO)C(=O)N[C@@H](CO)C(=O)NCC(=O)N[C@@H](C)C(=O)N1CCC[C@H]1C(=O)N1CCC[C@H]1C(=O)N1CCC[C@H]1C(=O)N[C@@H](CO)C(=O)O)C(C)C)[C@@H](C)CC [AT668] (H-EGTFISDYSIALDKIK(C16 diacid)QQDFVEWLLAQKPSSGAPPPS-OH; N-terminus assumed)
Visual appearance ([1]; 1 mg/ml, TFA, Phosphate (7.4)): Clear | cAMP antagonism % inhib [2]: 92% | Avr lag time (h) ([3]; 1 mg/ml, TFA, Phosphate (7.4)): fnd (Fnd = fibrils not detected within experiment time (96 hours) with agitation.)

CCCC[C@H](NC(=O)C(C)(C)NC(=O)[C@@H](NC(=O)[C@H](CO)NC(=O)[C@H](Cc1ccc(O)cc1)NC(=O)[C@H](CCC(=O)O)NC(=O)[C@H](CO)NC(=O)[C@@H](NC(=O)[C@H](Cc1ccccc1)NC(=O)[C@@H](NC(=O)CNC(=O)[C@@H](N)CCC(=O)O)[C@@H](C)O)[C@@H](C)CC)[C@@H](C)CC)C(=O)N[C@@H](CCC(=O)O)C(=O)N[C@@H](CCCCN)C(=O)N[C@H](C(=O)N[C@@H](CCCCNC(=O)COCCOCCNC(=O)COCCOCCNC(=O)CC[C@H](NC(=O)CCCCCCCCCCCCCCCCC(=O)O)C(=O)O)C(=O)N[C@@H](CCC(N)=O)C(=O)N[C@@H](CCC(N)=O)C(=O)N[C@@H](CCC(=O)O)C(=O)N[C@@H](Cc1ccccc1)C(=O)N[C@H](C(=O)N[C@@H](CCC(=O)O)C(=O)N[C@@H](Cc1c[nH]c2ccccc12)C(=O)N[C@@H](CC(C)C)C(=O)N[C@@H](CC(C)C)C(=O)N[C@@H](C)C(=O)N[C@@H](CCC(N)=O)C(=O)N[C@@H](CCCCN)C(=O)N1CCC[C@H]1C(=O)N[C@@H](CO)C(=O)N[C@@H](CO)C(=O)NCC(=O)N[C@@H](C)C(=O)N1CCC[C@H]1C(=O)N1CCC[C@H]1C(=O)N1CCC[C@H]1C(=O)N[C@@H](CO)C(=O)O)C(C)C)[C@@H](C)CC [AT696] (H-EGTFISEYSI[Aib][Nle]EKIK([AEEA-AEEA-γGlu-C18 diacid])QQEFVEWLLAQKPSSGAPPPS-OH; N-terminus assumed)
Visual appearance ([1]; 1 mg/ml, TFA, Phosphate (7.4)): Clear | Visual appearance ([1]; 5 mg/ml, Na, MilliQ (8)): Clear | Visual appearance ([1]; 7.5 mg/ml, Na, MilliQ (8)): Clear | Visual appearance ([1]; 15 mg/ml, Na, MilliQ (8)): Clear | cAMP antagonism % inhib [2]: 97% | Avr lag time (h) ([3]; 1 mg/ml, TFA, Phosphate (7.4)): fnd (Fnd = fibrils not detected within experiment time (96 hours) with agitation.) | Avr lag time (h) ([3]; 5 mg/ml, Na, MilliQ (8)): fnd (Fnd = fibrils not detected within experiment time (96 hours) with agitation.) | Avr lag time (h) ([3]; 7.5 mg/ml, Na, MilliQ (8)): fnd (Fnd = fibrils not detected within experiment time (96 hours) with agitation.) | Avr lag time (h) ([3]; 15 mg/ml, Na, MilliQ (8)): fnd (Fnd = fibrils not detected within experiment time (96 hours) with agitation.)

CC[C@H](C)[C@H](NC(=O)[C@H](CCCCN)NC(=O)[C@H](CC(=O)O)NC(=O)[C@H](CC(C)C)NC(=O)C(C)(C)NC(=O)[C@@H](NC(=O)[C@H](CO)NC(=O)[C@H](Cc1ccc(O)cc1)NC(=O)[C@H](CC(=O)O)NC(=O)[C@H](CO)NC(=O)[C@@H](NC(=O)[C@H](Cc1ccccc1)NC(=O)[C@@H](NC(=O)CNC(=O)[C@@H](N)CCC(=O)O)[C@@H](C)O)[C@@H](C)CC)[C@@H](C)CC)C(=O)N[C@@H](CCCCNC(=O)CCCCCCCCCCCCCCC(=O)O)C(=O)N[C@@H](CCC(N)=O)C(=O)N[C@@H](CCC(N)=O)C(=O)N[C@@H](CC(=O)O)C(=O)N[C@@H](Cc1ccccc1)C(=O)N[C@H](C(=O)N[C@@H](CCC(=O)O)C(=O)N[C@@H](Cc1c[nH]c2ccccc12)C(=O)N[C@@H](CC(C)C)C(=O)N[C@@H](CC(C)C)C(=O)N[C@@H](C)C(=O)N[C@@H](CCC(N)=O)C(=O)N[C@@H](CCCCN)C(=O)N1CCC[C@H]1C(=O)N[C@@H](CO)C(=O)N[C@@H](CO)C(=O)NCC(=O)N[C@@H](C)C(=O)N1CCC[C@H]1C(=O)N1CCC[C@H]1C(=O)N1CCC[C@H]1C(=O)N[C@@H](CO)C(=O)O)C(C)C [AT666] (H-EGTFISDYSI[Aib]LDKIK(C16 diacid)QQDFVEWLLAQKPSSGAPPPS-OH; N-terminus assumed)
Visual appearance ([1]; 1 mg/ml, TFA, Phosphate (7.4)): Clear | cAMP antagonism % inhib [2]: 89% | Avr lag time (h) ([3]; 1 mg/ml, TFA, Phosphate (7.4)): fnd (Fnd = fibrils not detected within experiment time (96 hours) with agitation.)

CC[C@H](C)[C@H](NC(=O)[C@H](CCCCN)NC(=O)[C@H](CCC(=O)O)NC(=O)[C@H](CCSC)NC(=O)C(C)(C)NC(=O)[C@@H](NC(=O)[C@H](CO)NC(=O)[C@H](Cc1ccc(O)cc1)NC(=O)[C@H](CCC(=O)O)NC(=O)[C@H](CO)NC(=O)[C@@H](NC(=O)[C@H](Cc1ccccc1)NC(=O)[C@@H](NC(=O)CNC(=O)[C@@H](N)CCC(=O)O)[C@@H](C)O)[C@@H](C)CC)[C@@H](C)CC)C(=O)N[C@@H](CCCCNC(=O)CCCCCCCCCCCCCCC(=O)O)C(=O)N[C@@H](CCC(N)=O)C(=O)N[C@@H](CCC(N)=O)C(=O)N[C@@H](CC(=O)O)C(=O)N[C@@H](Cc1ccccc1)C(=O)N[C@H](C(=O)N[C@@H](CCC(=O)O)C(=O)N[C@@H](Cc1c[nH]c2ccccc12)C(=O)N[C@@H](CC(C)C)C(=O)N[C@@H](CC(C)C)C(=O)N[C@@H](C)C(=O)N[C@@H](CCC(N)=O)C(=O)N[C@@H](CCCCN)C(=O)N1CCC[C@H]1C(=O)N[C@@H](CO)C(=O)N[C@@H](CO)C(=O)NCC(=O)N[C@@H](C)C(=O)N1CCC[C@H]1C(=O)N1CCC[C@H]1C(=O)N1CCC[C@H]1C(=O)N[C@@H](CO)C(=O)O)C(C)C [AT616] (H-EGTFISEYSI[Aib]MEKIK(C16 diacid)QQDFVEWLLAQKPSSGAPPPS-OH; N-terminus assumed)
Visual appearance ([1]; 1 mg/ml, Na, MilliQ (7.7)): Clear | cAMP antagonism % inhib [2]: 100% | Avr lag time (h) ([3]; 1 mg/ml, Na, MilliQ (7.7)): fnd (Fnd = fibrils not detected within experiment time (96 hours) with agitation.)
